This is an account of results in paper PMC6271642, “New Derivatives of 3,4-Dihydroisoquinoline-3-carboxylic Acid with Free-Radical Scavenging, D-Amino Acid Oxidase, Acetylcholinesterase and Butyrylcholinesterase Inhibitory Activity” (Molecules, 2014).

The target of assay [1] is T1, D-Amino acid oxidase from porcine kidney (DAAO) (Sus scrofa, UniProt P00371).
T1 construct: gene DAO; native enzyme from porcine kidney, Sigma-Aldrich
The experiment in a line: colorimetric, […],4-dinitrophenylhydrazine detection of keto acid. The note with it: D-Ala substrate, 0.2 M Tris-HCl pH 8.2, 37 °C, 30 min. Format: biochemical.

Assay [2] has as its target T1, D-Amino acid oxidase from porcine kidney (DAAO). The description is as above. Conditions: read-out: DAAO Inhibition [IC50] ^c/[%] ^d. Format: biochemical.
In assay [3] the target is T2, butyrylcholinesterase from equine serum (BuChE) (Equus caballus, UniProt P81908).
T2 construct: gene BCHE
T2 sequence (P81908 whole entry): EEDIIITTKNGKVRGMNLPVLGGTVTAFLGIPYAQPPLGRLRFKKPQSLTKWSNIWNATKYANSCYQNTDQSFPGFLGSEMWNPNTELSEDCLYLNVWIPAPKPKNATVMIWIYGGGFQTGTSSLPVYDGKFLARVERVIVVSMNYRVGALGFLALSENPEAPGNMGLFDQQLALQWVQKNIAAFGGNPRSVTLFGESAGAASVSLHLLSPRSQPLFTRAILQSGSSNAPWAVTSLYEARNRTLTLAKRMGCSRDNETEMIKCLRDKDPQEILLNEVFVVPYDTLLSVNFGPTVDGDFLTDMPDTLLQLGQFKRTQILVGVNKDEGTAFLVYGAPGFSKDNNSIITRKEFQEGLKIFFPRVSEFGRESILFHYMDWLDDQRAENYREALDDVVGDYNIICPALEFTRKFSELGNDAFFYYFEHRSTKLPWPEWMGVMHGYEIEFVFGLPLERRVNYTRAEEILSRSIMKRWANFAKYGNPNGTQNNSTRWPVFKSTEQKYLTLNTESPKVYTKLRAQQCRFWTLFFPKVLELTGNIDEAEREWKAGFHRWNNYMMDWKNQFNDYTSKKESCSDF
The assay can be described thus: biochemical.

Assay [4] deals with acetylcholinesterase from Electrophorus electricus (AChE) (Electrophorus electricus, UniProt O42275). The assay can be described thus: biochemical.
Sequence of acetylcholinesterase from Electrophorus electricus (AChE) (O42275 24-633): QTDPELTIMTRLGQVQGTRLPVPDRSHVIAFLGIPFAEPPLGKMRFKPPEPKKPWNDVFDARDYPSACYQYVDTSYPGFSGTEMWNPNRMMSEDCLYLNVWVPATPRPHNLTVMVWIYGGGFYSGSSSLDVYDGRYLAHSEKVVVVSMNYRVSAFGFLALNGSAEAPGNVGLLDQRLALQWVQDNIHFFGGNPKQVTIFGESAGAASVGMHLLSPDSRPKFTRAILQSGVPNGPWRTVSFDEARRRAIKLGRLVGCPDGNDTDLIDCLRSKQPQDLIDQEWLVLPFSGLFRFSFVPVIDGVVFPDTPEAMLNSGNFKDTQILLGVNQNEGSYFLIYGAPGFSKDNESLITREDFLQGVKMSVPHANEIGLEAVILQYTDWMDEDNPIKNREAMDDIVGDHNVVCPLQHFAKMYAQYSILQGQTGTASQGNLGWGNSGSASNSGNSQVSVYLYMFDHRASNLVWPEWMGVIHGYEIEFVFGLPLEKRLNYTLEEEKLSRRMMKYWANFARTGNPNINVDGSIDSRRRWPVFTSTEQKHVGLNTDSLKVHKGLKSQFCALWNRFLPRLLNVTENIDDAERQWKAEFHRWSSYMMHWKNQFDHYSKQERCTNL

T1 sequence (P00371 whole entry): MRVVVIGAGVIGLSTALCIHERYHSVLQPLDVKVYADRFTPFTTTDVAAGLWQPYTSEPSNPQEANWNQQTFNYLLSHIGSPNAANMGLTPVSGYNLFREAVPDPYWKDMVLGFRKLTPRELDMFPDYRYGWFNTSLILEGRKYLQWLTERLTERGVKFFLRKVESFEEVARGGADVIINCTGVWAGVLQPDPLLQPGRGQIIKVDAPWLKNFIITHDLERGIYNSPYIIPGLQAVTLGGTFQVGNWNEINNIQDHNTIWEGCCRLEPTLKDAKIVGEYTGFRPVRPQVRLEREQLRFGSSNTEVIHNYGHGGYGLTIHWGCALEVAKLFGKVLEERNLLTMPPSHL

Take `O=C(O)C1Cc2c(Br)ccc(O)c2C=N1` (racemic) [5a, 5-Bromo-8-hydroxy-3,4-dihydroisoquinolin-3-carboxylic acid]: the “DAAO Inhibition [IC50] ^c/[%] ^d” value in assay [1] (unreliable (above the highest final concentration of about 3.57 mM, extrapolated)) is recorded as 8.46 mM. As for `O=C(O)C1Cc2ccc(Br)c(O)c2C=N1` (racemic) [5b, 7-Bromo-8-hydroxy-3,4-dihydroisoquinolin-3-carboxylic acid], in assay [1] (3570 µM, 3.57 mM compound), the “DAAO Inhibition [IC50] ^c/[%] ^d” value is 13.88%. In the case of `O=C(O)C1Cc2cc(O)cc(O)c2C=N1` (racemic) [5c, 6,8-Dihydroxy-3,4-dihydroisoquinolin-3-carboxylic acid], the IC50 in assay [2] amounted to 1660 µM. Same read-out and setting: to `O=C(O)C1Cc2cc(O)c(O)c(I)c2C=N1` (racemic) [5d, 6,7-Dihydroxy-8-iodo-3,4-dihydroisoquinolin-3-carboxylic acid] belongs 3350 µM. On to `O=C(O)C1Cc2cc(O)c(O)cc2C=N1` (racemic) [5e, 6,7-Dihydroxy-3,4-dihydroisoquinolin-3-carboxylic acid], for which the “DAAO Inhibition [IC50] ^c/[%] ^d” value in assay [1] (3570 µM, 3.57 mM compound) stood at 7.52%. Also, the IC50 in assay [3] was 370 µM; in assay [4], 560 µM. `O=C(O)C1Cc2c(O)c(O)cc(Br)c2C=N1` (racemic) [5f, 8-Bromo-5,6-dihydroxy-3,4-dihydroisoquinolin-3-carboxylic acid]: the IC50 in assay [2] amounted to 2060 µM; in assay [4], 540 µM. In the case of `O=C(O)C1Cc2cc(O)c(O)c(Br)c2C=N1` (racemic) [5g, 8-Bromo-6,7-dihydroxy-3,4-dihydroisoquinolin-3-carboxylic acid], the IC50 in assay [2] was 2000 µM. In the case of `O=C(O)C1Cc2cc(O)c(O)c(Cl)c2C=N1` (racemic) [5h, 8-Chloro-6,7-dihydroxy-3,4-dihydroisoquinolin-3-carboxylic acid], the IC50 in assay [2] is 1740 µM; in assay [4] it was 820 µM. In the case of `O=C(O)C1Cc2cc(O)c(Br)c(O)c2C=N1` (racemic) [5j, 7-Bromo-6,8-dihydroxy-3,4-dihydroisoquinolin-3-carboxylic acid], the “DAAO Inhibition [IC50] ^c/[%] ^d” value in assay [1] (3570 µM, 3.57 mM compound) came out at 11.50%. Besides, the IC50 in assay [3] amounted to 640 µM; in assay [4], 470 µM. For `O=C(O)C1Cc2c(Cl)c(O)cc(O)c2C=N1` (racemic) [5k, 5-Chloro-6,8-dihydroxy-3,4-dihydroisoquinolin-3-carboxylic acid] the same measures were 7.27%, 1420 µM and 590 µM. For the compound `O=C(O)C1Cc2c(cc(O)c(O)c2Cl)C=N1` (racemic) [5l, 5-Chloro-6,7-dihydroxy-3,4-dihydroisoquinolin-3-carboxylic acid], the IC50 amounted to 170 µM in assay [3] and 1290 µM in assay [2].

Consider `O=C(O)C1CCc2cc(O)c(O)cc2C=N1` (racemic) [compound 9, 7,8-Dihydroxy-4,5-dihydro-3H-2-benzazepine-3-carboxylic Acid], for which the IC50 in assay [2] turned out to be 550 µM; in assay [4], 2080 µM. Consider `O=C(O)c1ccccc1` [Benzoic acid, reference compound], for which the IC50 in assay [2] was found to be 2280 µM. On to `C[C@@]1(C(=O)O)Cc2cc(O)c(O)cc2C=N1` [compound 13, (S)-6,7-Dihydroxy-3-methyl-3,4-dihydroisoquinolin-3-carboxylic Acid], for which the “DAAO Inhibition [IC50] ^c/[%] ^d” value in assay [1] (3570 µM, 3.57 mM compound) turned out to be 7.89%. Also, the IC50 in assay [3] stood at 620 µM; in assay [4] it was 1780 µM. With `CC1(C(=O)O)Cc2cc(O)c(O)cc2C2C(Cl)C(=O)N21` (stereo not shown) [compound 15, 1-Chloro-7,8-dihydroxy-4-methyl-2-oxo-1,4,5,9b-tetrahydro-2H-azeto[2,1-a]-isoquinoline-4-carboxylic Acid], the IC50 was found to be 1750 µM in assay [3] and 2020 µM in assay [2].
